From ChEMBL document CHEMBL5029165, “Derivatives of montanine-type alkaloids and their implication for the treatment of Alzheimer's disease: Synthesis, biological activity and in silico study” (Bioorg Med Chem Lett, 2021)

Key:
Acetylcholinesterase [1] = target: T1, Acetylcholinesterase (Homo sapiens, UniProt P22303); assay: Inhibition of human AChE at 100 uM using acetylthiocholine as substrate by Ellman's method
Acetylcholinesterase [2] = target: T1, Acetylcholinesterase; assay: Inhibition of human AChE using acetylthiocholine as substrate by Ellman's method
Cholinesterase [3] = target: T2, Cholinesterase (Homo sapiens, UniProt P06276); assay: Inhibition of human BuChE at 100 uM using butyrylthiocholine chloride as substrate by Ellman's method
T2 sequence (P06276 whole entry): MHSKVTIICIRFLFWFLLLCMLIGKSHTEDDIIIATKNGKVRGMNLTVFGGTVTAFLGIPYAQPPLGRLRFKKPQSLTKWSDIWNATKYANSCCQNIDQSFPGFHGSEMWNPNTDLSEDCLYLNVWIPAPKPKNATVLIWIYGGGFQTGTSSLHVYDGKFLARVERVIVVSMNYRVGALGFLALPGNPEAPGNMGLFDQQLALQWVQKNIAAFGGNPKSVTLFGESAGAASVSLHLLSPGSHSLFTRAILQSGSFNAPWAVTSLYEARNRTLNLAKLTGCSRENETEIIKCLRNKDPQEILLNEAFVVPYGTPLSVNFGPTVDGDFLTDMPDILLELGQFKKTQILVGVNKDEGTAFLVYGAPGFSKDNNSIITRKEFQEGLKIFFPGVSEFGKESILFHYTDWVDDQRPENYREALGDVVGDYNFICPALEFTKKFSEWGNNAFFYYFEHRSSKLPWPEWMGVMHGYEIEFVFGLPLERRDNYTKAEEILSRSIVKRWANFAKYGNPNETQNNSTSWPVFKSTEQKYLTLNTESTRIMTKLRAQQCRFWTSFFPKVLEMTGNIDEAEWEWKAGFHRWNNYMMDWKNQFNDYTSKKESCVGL

Cholinesterase [4] = target: T2, Cholinesterase; assay: Inhibition of human BuChE using butyrylthiocholine chloride as substrate by Ellman's method
[5] = Selectivity index, ratio of IC50 for human BuChe to IC50 for human AChE
[6] = Selectivity index, ratio of IC50 for human AChE to IC50 for human BuChe

T1 sequence (P22303 whole entry): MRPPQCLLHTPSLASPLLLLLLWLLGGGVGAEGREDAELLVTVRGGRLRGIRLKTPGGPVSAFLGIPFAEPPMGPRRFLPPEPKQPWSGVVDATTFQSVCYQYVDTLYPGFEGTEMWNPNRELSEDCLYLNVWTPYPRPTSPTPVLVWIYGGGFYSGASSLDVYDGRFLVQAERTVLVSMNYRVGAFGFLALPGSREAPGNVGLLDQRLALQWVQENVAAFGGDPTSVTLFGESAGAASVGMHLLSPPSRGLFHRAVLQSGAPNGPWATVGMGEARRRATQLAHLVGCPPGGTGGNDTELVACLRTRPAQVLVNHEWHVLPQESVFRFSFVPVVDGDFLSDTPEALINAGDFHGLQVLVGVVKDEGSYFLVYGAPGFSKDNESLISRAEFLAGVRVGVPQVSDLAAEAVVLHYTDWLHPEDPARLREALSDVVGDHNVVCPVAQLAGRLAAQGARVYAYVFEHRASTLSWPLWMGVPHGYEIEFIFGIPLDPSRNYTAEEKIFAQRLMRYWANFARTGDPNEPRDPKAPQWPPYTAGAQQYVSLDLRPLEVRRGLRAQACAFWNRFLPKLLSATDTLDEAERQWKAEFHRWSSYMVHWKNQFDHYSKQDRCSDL

Row | Compound | inhibition (Acetylcholinesterase [1]) | IC50 (Acetylcholinesterase [2]) | inhibition (Cholinesterase [3]) | IC50 (Cholinesterase [4]) | Selectivity Index [5] | Selectivity Index [6]
1 | CO[C@H]1C[C@H]2C(=C[C@@H]1OCCN1CCCCC1)[C@H]1CN2Cc2cc3c(cc21)OCO3 | 6.5% | > 100 µM | 45.2% | > 100 µM | – | –
2 | CO[C@H]1C[C@H]2C(=C[C@@H]1OC(=O)c1ccccc1[N+](=O)[O-])[C@H]1CN2Cc2cc3c(cc21)OCO3 | 34.1% | > 100 µM | 45.4% | > 100 µM | – | –
3 | CO[C@H]1C=C2[C@H]3CN(Cc4cc5c(cc43)OCO5)[C@H]2C[C@@H]1OC(=O)c1ccc(Cl)c([N+](=O)[O-])c1 | 4.8% | > 100 µM | 13.8% | > 100 µM | – | –
4 | CO[C@H]1C[C@H]2C(=C[C@@H]1OC(=O)c1ccccc1)[C@H]1CN2Cc2cc3c(cc21)OCO3 | 8.5% | > 100 µM | 20.1% | > 100 µM | – | –
5 | CO[C@H]1C[C@H]2C(=C[C@@H]1OC(=O)c1cc(Br)cc([N+](=O)[O-])c1)[C@H]1CN2Cc2cc3c(cc21)OCO3 | 28% | > 100 µM | 31.7% | > 100 µM | – | –
6 | COc1cccc(C(=O)O[C@H]2C=C3[C@H]4CN(Cc5cc6c(cc54)OCO6)[C@H]3C[C@@H]2OC)c1 | 19.3% | > 100 µM | 20.3% | > 100 µM | – | –
7 | CO[C@H]1C[C@H]2C(=C[C@@H]1OC(=O)c1ccc([N+](=O)[O-])cc1Cl)[C@H]1CN2Cc2cc3c(cc21)OCO3 | 48.6% | > 100 µM | 27.1% | > 100 µM | – | –
8 | CO[C@H]1C[C@H]2C(=C[C@@H]1OC(=O)c1ccoc1)[C@H]1CN2Cc2cc3c(cc21)OCO3 | 6.8% | > 100 µM | 30.2% | > 100 µM | – | –
9 | CO[C@H]1C[C@H]2C(=C[C@@H]1OC(=O)c1ccccc1C)[C@H]1CN2Cc2cc3c(cc21)OCO3 | 29.7% | > 100 µM | 30.2% | > 100 µM | – | –
10 | CO[C@H]1C=C2[C@H]3CN(Cc4cc5c(cc43)OCO5)[C@H]2C[C@@H]1OC(=O)c1ccc(C)c([N+](=O)[O-])c1 | 30.3% | > 100 µM | 20.4% | > 100 µM | – | –
11 | CO[C@H]1C[C@H]2C(=C[C@@H]1OC(=O)c1ccco1)[C@H]1CN2Cc2cc3c(cc21)OCO3 | 15.1% | > 100 µM | 26.9% | > 100 µM | – | –
12 | CO[C@H]1C[C@H]2C(=C[C@@H]1OC(=O)c1cccs1)[C@H]1CN2Cc2cc3c(cc21)OCO3 | 29.4% | > 100 µM | 49.7% | > 100 µM | – | –
13 | O=C(O[C@@H]1C=C[C@]23CCN(Cc4cc5c(cc42)OCO5)[C@H]3C1)c1ccccc1[N+](=O)[O-] | – | 60 µM | – | 1.4 µM | – | –
14 | CO[C@H]1C[C@H]2C(=C[C@@H]1O)[C@H]1CN2Cc2cc3c(cc21)OCO3 | 9.2% | > 100 µM | 9.2% | > 100 µM | – | –
15 | COc1c2c(cc3c1OCO3)[C@]13C=C[C@H](OC)C[C@H]1N(C2)C[C@H]3OC(=O)c1cccc2ccccc12 | – | > 100 µM | – | 0.1 µM | – | –
16 | COc1ccc(C(=O)O[C@H]2C=C3[C@H]4CN(Cc5cc6c(cc54)OCO6)[C@H]3C[C@@H]2OC)cc1 | 12.5% | > 100 µM | 15.5% | > 100 µM | – | –
17 | CO[C@H]1C[C@H]2C(=C[C@@H]1OC(=O)c1ccc([N+](=O)[O-])cc1)[C@H]1CN2Cc2cc3c(cc21)OCO3 | 48.1% | > 100 µM | 26.2% | > 100 µM | – | –
18 | CO[C@H]1C=C2[C@H]3CN(Cc4cc5c(cc43)OCO5)[C@H]2C[C@@H]1OC(=O)N1CCCCC1 | 10.9% | > 100 µM | 88.2% | 6.54 µM | < 0.07 | > 15.3
19 | COc1ccc(C(=O)O[C@H]2C=C3[C@H]4CN(Cc5cc6c(cc54)OCO6)[C@H]3C[C@@H]2OC)cc1OC | 17.2% | > 100 µM | 18.1% | > 100 µM | – | –

Row | Compound | inhibition (Acetylcholinesterase [1]) | IC50 (Acetylcholinesterase [2]) | inhibition (Cholinesterase [3]) | IC50 (Cholinesterase [4]) | Selectivity Index [5] | Selectivity Index [6]
20 | CO[C@H]1C[C@H]2C(=C[C@@H]1OC(=O)c1cc([N+](=O)[O-])cc([N+](=O)[O-])c1)[C@H]1CN2Cc2cc3c(cc21)OCO3 | 70.8% | 13.1 µM | 19.2% | > 100 µM | > 7.66 | < 0.13
21 | CO[C@H]1C=C2[C@H]3CN(Cc4cc5c(cc43)OCO5)[C@H]2C[C@@H]1OC(=O)c1ccc([N+](=O)[O-])cc1Cl | 2.3% | > 100 µM | 69.8% | 17 µM | < 0.17 | > 5.9
22 | CO[C@H]1C=C2[C@H]3CN(Cc4cc5c(cc43)OCO5)[C@H]2C[C@@H]1O | 13.7% | – | 8.4% | – | – | –
23 | CO[C@H]1C[C@H]2C(=C[C@@H]1OC(=O)c1ccc(C)cc1)[C@H]1CN2Cc2cc3c(cc21)OCO3 | 12.4% | > 100 µM | 12.9% | > 100 µM | – | –
24 | CO[C@H]1C[C@H]2C(=C[C@@H]1OC(=O)c1cccc([N+](=O)[O-])c1)[C@H]1CN2Cc2cc3c(cc21)OCO3 | 55.3% | > 100 µM | 18.1% | > 100 µM | – | –
25 | CO[C@H]1C[C@H]2C(=C[C@@H]1OC(=O)c1cccc(C)c1)[C@H]1CN2Cc2cc3c(cc21)OCO3 | 18.2% | > 100 µM | 12.9% | > 100 µM | – | –
26 | CO[C@H]1C[C@H]2C(=C[C@@H]1OC(=O)c1ccc(C)c([N+](=O)[O-])c1)[C@H]1CN2Cc2cc3c(cc21)OCO3 | 81.5% | 4.32 µM | 6.8% | > 100 µM | > 23.1 | < 0.04
27 | CO[C@H]1C=C2[C@H]3CN(Cc4cc5c(cc43)OCO5)[C@H]2C[C@@H]1OC(=O)c1cc([N+](=O)[O-])ccc1Cl | 1.8% | > 100 µM | 40.1% | > 100 µM | – | –
28 | CO[C@H]1C[C@H]2C(=C[C@@H]1OC(=O)N1CCCCC1)[C@H]1CN2Cc2cc3c(cc21)OCO3 | 8.8% | > 100 µM | 97% | 1.73 µM | – | –
29 | Cc1ccccc1C(=O)O[C@@H]1C=C[C@]23CCN(Cc4cc5c(cc42)OCO5)[C@H]3C1 | – | > 100 µM | – | 8 µM | – | –
30 | CO[C@H]1C[C@H]2C(=C[C@@H]1OC(=O)c1ccc(Cl)c([N+](=O)[O-])c1)[C@H]1CN2Cc2cc3c(cc21)OCO3 | 83.7% | 1.61 µM | 26.5% | > 100 µM | > 62.1 | < 0.02
31 | CO[C@H]1C=C2[C@H]3C[N@@](Cc4cc5c(cc43)OCO5)[C@H]2C[C@@H]1O [MONTANINE] | – | > 100 µM | – | > 100 µM | – | –
32 | COc1ccccc1C(=O)O[C@H]1CN2Cc3cc4c(cc3[C@]13C=C[C@@H](O)C[C@H]23)OCO4 | – | 90 µM | – | 3.3 µM | – | –
33 | O=C(O[C@H]1CN2Cc3cc4c(cc3[C@]13C=C[C@@H](O)C[C@H]23)OCO4)c1ccccc1Cl | – | 13 µM | – | 5.6 µM | – | –
34 | CO[C@H]1C[C@H]2C(=C[C@@H]1OC(=O)c1cc([N+](=O)[O-])ccc1Cl)[C@H]1CN2Cc2cc3c(cc21)OCO3 | 78.7% | 3.18 µM | 30% | > 100 µM | > 31.4 | < 0.03
35 | CO[C@H]1C[C@H]2C(=C[C@@H]1OC(=O)C1CCCCC1)[C@H]1CN2Cc2cc3c(cc21)OCO3 | 1.2% | > 100 µM | 20.8% | > 100 µM | < 0.02 | > 57.8
36 | O=C(O[C@H]1CN2Cc3cc4c(cc3[C@]13C=C[C@@H](O)C[C@H]23)OCO4)c1cccc([N+](=O)[O-])c1 | – | 4 µM | – | > 100 µM | – | –
37 | COc1ccccc1C(=O)O[C@H]1C=C2[C@H]3CN(Cc4cc5c(cc43)OCO5)[C@H]2C[C@@H]1OC | 15.6% | > 100 µM | 30.1% | > 100 µM | – | –
